# Where no end group is shown, it is not given here.
# How the values were obtained:
# [1] = test system: C factor (activation with LPS derived from E. coli 0111 B4 strain); assay: Inhibition of activation of C factor by LPS; format: biochemical, Horseshoe crab
# Description: The acidic extract, concentrated and dried, was redissolved in 20mM HCl aq. soln. and then added into a Sephadex G-50 column (3.0×90.0 cm) (previously equilibrated with 20mM HCl aq. soln.) to effect gel filtration. The eluted fractions inhibiting activation of C factor with LPS (one derived from E. coli 0111 B4 strain was used) (Horseshoe crab blood coagulating serine protease precursor; LPS-sensitive factor named by the present inventors, Nakamura et al., Eur. J. Biochem., 154, 511 (1986 ) ) were collected, and the pH of the pooled fractions was adjusted to 6.0 with NaOH aq. soln.
# The test results for the inhibition effect of the polypeptide (SEQ ID NO: 1) of the present invention against activation of C factor by LPS are shown in FIG. 2 and FIG. 3. FIG. 2 and FIG. 3 show the results in the absence or presence (1M) of sodium chloride, respectively. […] This property of binding electrically with LPS has been discovered by the present inventors. In FIG. 2 and FIG. 3, the marks (o) and show the results of the polypeptide of the present invention and polylysine, respectively.
# [2] = Gel precipitin reaction / double diffusion test in 1% agarose gel; format: binding
# Description: In a solution of 1% agarose (0.1% NaN3 was added) dissolved in Tris-HCl-physiologic saline of pH 7.2, Beronall buffer of pH 8.6 and acetate buffer of pH 4.6, a sedimentation line was formed between LPS and the polypeptide (SEQ ID NO: 1) of the present invention or anti-LPS factor {basic protein having MW of 11,600, consisting of amino acid 102 residue obtained from extract (lysate) of Tachypleus tridentatus hemocyte; hereinafter referred to "ALF"}. The line was dyed in amide black. The diluent used for the polypeptide of the present invention was 50 mM Tris HCl--0.15M NaCl (pH 7.2).
# [3] = test system: LPS sensitized erythrocyte (human O-type); assay: Hemolysis activity on LPS sensitized erythrocyte; format: cell-based
# Description: To 1 ml of suspension containing mainly 2.5% human O-type erythrocyte, 0.5 ml of LPS (1 mg/ml ) was added and the mixture was shaken at […] for 1 hour to mix, followed by washing with saline solution.
# A mixture of 50 μl of 0.5% LPS sensitized erythrocyte, 50 μl of 2-fold series diluted solution of 0.5% polypeptide of the present invention and 100 μl of Tris-HCl-buffered saline saline buffer (pH 7.2) was maintained at 37° C. for 1 hour and thereafter 2.3 ml of physiologic saline was added thereto, followed by centrifugation with 2,500 rpm for 10 minutes. The amount of hemoglobin in the supernatant was determined by use of […] absorption. Also, the hemolysis pattern on a micro plate was determined by use of a micro plate reader (Corona MPT-100: trade name) after maintaining a mixture of 50 μl of 0.5% LPS sensitized erythrocyte and 50 μl of 2-fold series diluted solution of 0.5% polypeptide at 37° C. for 1 hour.
# [4] = test system: non-sensitized erythrocyte; format: cell-based, human
# [5] = test system: Salmonella minnesota 1114 W(S); assay: Antibacterial activity; format: cell-based
# Description: (§1) Twenty μl of a 2-fold series diluted solution containing 0.5% polypeptide (SEQ ID NO: 1) of the present invention and 20 μl of bacterium solution (10^6 to 10^7/ ml) were cultured onto 160 μl of a culture medium of Penassay or a synthetic medium of Jarvis. After 18 hours at 37° C., its turbidity was measured by use of a micro plate reader at 550 nm and also partial live bacteria number and inhibition circle were measured.
# [6] = test system: Salmonella minnesota R 595(Re); assay: Antibacterial activity; format: cell-based
# Description: as §1
# [7] = test system: Salmonella typhimurium 1102(Re); assay: Antibacterial activity; format: cell-based
# Description: as §1
# [8] = test system: Salmonella typhimurium LT 2(S); assay: Antibacterial activity; format: cell-based
# Description: as §1
# Staphylococcus aureus = assay: Antibacterial activity; format: cell-based; details: Gram positive bacteria
# Description: as §1
# bacteria = assay: Antibacterial activity in general, inhibition circle on agar containing bacteria; format: cell-based
# Description: as §1
# [9] = test system: Spleen cells (SC) of C57BL male mouse; assay: Inhibition of blastogenesis of mouse lymphocyte by LPS (3H-TdR uptake, microscopy); format: cell-based; details: for magnification and colonization (blastogenesis) under the microscope: then 50 μg/ml LPS, three days; for inhibition of blastogenesis of lymphocyte: in the presence of LPS, 72 hours, 3H-TdR, FIG. 5
# Description: Spleen cells (SC) of C57BL male mouse (5 weeks age) was collected by use of Ficoll-Hypaque gravity centrifugation and suspended in RPMI-1640 culture medium (no serum or added with BSA, FCS). The resulting culture medium was adjusted to 3×10^6 cell/ml and 100 μl was distributed into each of the 96-holes of a microtiter plate. 10 μl each of 0.4, 4, 40 and 400 μg/ml polypeptide of the present invention (LBP), finally then 80 μl of the culture medium, and finally 10 μl of 400 μg/ml LPS were added to the distibuted culture medium, followed by incubation in 5% CO2 incubator for 72 hours. ^3 H-thymidine (^3 H-TdR) was added thereto in an amount of 1 μci/10 μl 18 hours before completion of the incubation. The amount of ^3 H-TdR collected after peeling off of cells by use of cell harvester was measured by use of a liquid scintillation counter to discover the index of cell multiplication.
# Cell multiplication was observed by using a microscope to take an insert image microphotograph.
# [10] = test system: Peripheral blood mononuclear cells of healthy human; assay: Inhibition of blastogenesis of human peripheral lymphocyte by LPS (3H-TdR uptake); format: cell-based; details: 10 μg/ml LBP, 50 μg/ml LPS, 72 hours, FIG. 10
# Description: Peripheral blood mononuclear cells (PBNC)of healthy human ([…]) were collected by use of Ficoll-Hypaque gravity centrifugation and suspended in RPMI-1640 culture medium (no serum or added with BSA, FCS). The resulting culture medium was adjusted to 2×10^6 cell/ml and 100 μl was distributed into each of the 96-holes of a microtiter plate. 10 μl of 200 μg/ml LBP, then 80 μl of the culture medium, and finally 10 μl of 400 μg/ml LPS were added to the distributed culture medium, followed by incubation in 5% CO2 incubator for, 72 hours. ^3 H-thymidine (^3 H-TdR) was added thereto in an amount of 1 μci/10 μl 18 hours before completion of the incubation. The amount of ^3 H-TdR collected after peeling of cells by use of cell harvester was measured by use of a liquid scintillation counter to discover the index of cell multiplication.
substance,measurement,setting,value
polypeptide (SEQ ID NO: 1): 17 amino acid polypeptide isolated from Tachypleus tridentatus hemocyte and also made by solid phase synthesis; C-end arginine amidated (KWCFRVCYRGICYRRCR-NH2; cysteine pairing not given here),concentration inhibiting activation of C factor with LPS 50%,[1]; 0.1 μg/ml of LPS (E. coli 0111 B4),0.12 µg/mL
same,IC50,"[1]; 0.1 μg/ml of LPS (E. coli 0111 B4), read-out: concentration inhibiting activation of C factor with LPS 50%",50 nM
same,influence of salt concentration on inhibition of C factor activation by LPS,"[1]; absence or presence (1M) of sodium chloride, FIG. 2 and FIG. 3, polylysine as control",strong affinity for LPS which is not influenced by the salt concentration
same,"binding activity between LBP and LPS, C factor activity inhibition as index",[1]; amount of LBP relative to amount of LPS,about 20 times amount of LPS amount
same,inhibition of activation of C factor with LPS,"[1]; at 1 μM (2.3 μg/ml) polypeptide, 0.1 μg/ml of LPS (E. coli 0111 B4)",completely
same,sedimentation line with LPS in the double diffusion test,[2]; 1% agarose gel,form a sedimentation line
same,sedimentation lines in the gel precipitation reaction,"[2]; any LPS of Salmonella minnesota 1114 W, R595, E. coli 0111:B4, 0113 and J5",sharp sedimentation lines
same,hemolysis activity compared with ALF,"[3]; ALF = anti-LPS factor, basic protein of MW 11,600 from Tachypleus tridentatus hemocyte lysate",weaker than that of ALF
same,effect of free LPS on hemolysis,[3]; free LPS added,hemolysis was inhibited by a free LPS
same,hemolysis at room temperature,"[3]; high concentration, room temperature",exhibited hemolysis with ease
same,amount at which hemolysis of non-sensitized erythrocyte was observed,[4],≥ 3.13 μ/ml
same,antibacterial activity,[5],exhibited antibacterial activity
same,antibacterial activity,[6],exhibited antibacterial activity
same,antibacterial activity,[7],exhibited antibacterial activity
same,minimum antibacterial dose,[7]; 18 hours at 37° C.,1.56 µg/mL
same,antibacterial activity,[8],exhibited antibacterial activity
same,minimum antibacterial dose,[8]; 18 hours at 37° C.,3.13 µg/mL
same,antibacterial activity,Staphylococcus aureus,exhibited antibacterial activity
same,antibacterial activity compared with ALF,bacteria; ALF = anti-LPS factor from Tachypleus tridentatus hemocyte lysate,generally stronger than that of ALF
same,inhibition circle,bacteria; on an agar containing bacteria,formed depending on the concentration
same,magnification and colonization (blastogenesis) under the microscope,"[9]; 0.2 μg/ml LBP, FIG. 7",few change were revealed
same,magnification and colonization (blastogenesis) under the microscope,"[9]; 2 μg/ml LBP, FIG. 8",magnification and colonization were hardly revealed
same,inhibition of blastogenesis of lymphocyte,[9]; 2 μg/ml LBP,≥ 90%
same,magnification and colonization (blastogenesis) under the microscope,"[9]; 20 μg/ml LBP, FIG. 9",magnification and colonization were hardly revealed
same,inhibition of blastogenesis of lymphocyte,[9]; 20 μg/ml LBP,≥ 90%
same,inhibition of blastogenesis of lymphocyte,[10],approximately 100%
